Experimental data reported in patent US20250243196A1, “CITRON KINASE INHIBITORS” (The Cleveland Clinic Foundation, priority 2021, published 2025).
Read-outs that look alike come from different tables or passages of the source.

System: NCI-60 human tumor cell line panel
Assay: NCI-60 human tumor cell line screen (GI50)
Assay type: cell-based

Cc1cc2c(-c3ccc(NC(=O)[C@H](N)CC(C)(C)C)cc3C)ccnc2[nH]1 [Compound F-90, (2R)-2-Amino-4,4-dimethyl-N-[3-methyl-4-(2-methyl-1H-pyrrolo[2,3-b]pyridin-4-yl)phenyl]pentanamide]
GI50 (786-0, Renal Cancer): −5.744 Log(M)
GI50 (A498, Renal Cancer): −5.657 Log(M)
GI50 (A549/ATCC, Non-Small Cell Lung Cancer): −4.985 Log(M)
GI50 (ACHN, Renal Cancer): −4.978 Log(M)
GI50 (BT-549, Breast Cancer): −5.200 Log(M)
GI50 (CAKI-1, Renal Cancer): −5.347 Log(M)
GI50 (CCRF-CEM, Leukemia): −5.267 Log(M)
GI50 (COLO 205, Colon Cancer): −5.741 Log(M)
GI50 (DU-145, Prostate Cancer): −4.905 Log(M)
GI50 (EKVX, Non-Small Cell Lung Cancer): −4.950 Log(M)
GI50 (HCC-2998, Colon Cancer): −5.236 Log(M)
GI50 (HCT-15, Colon Cancer): −5.345 Log(M)
GI50 (HCT-116, Colon Cancer): −5.314 Log(M)
GI50 (HL-60(TB), Leukemia): −5.539 Log(M)
GI50 (HOP-62, Non-Small Cell Lung Cancer): −4.941 Log(M)
GI50 (HOP-92, Non-Small Cell Lung Cancer): −5.574 Log(M)
GI50 (HS 578T, Breast Cancer): −5.849 Log(M)
GI50 (HT29, Colon Cancer): −5.565 Log(M)
GI50 (Homo sapiens, 786-0, 786-0, Renal Cancer, read-out: GI50): 1.8 µM
GI50 (Homo sapiens, A498, A498, Renal Cancer, read-out: GI50): 2.2 µM
GI50 (Homo sapiens, A549, A549/ATCC, Non-Small Cell Lung Cancer, read-out: GI50): 10.3 µM
GI50 (Homo sapiens, ACHN, Renal Cancer, read-out: GI50): 10.5 µM
GI50 (Homo sapiens, BT-549, BT-549, Breast Cancer, read-out: GI50): 6.3 µM
GI50 (Homo sapiens, CAKI-1, CAKI-1, Renal Cancer, read-out: GI50): 4.5 µM
GI50 (Homo sapiens, CCRF-CEM, Leukemia, read-out: GI50): 5.4 µM
GI50 (Homo sapiens, COLO 205, COLO 205, Colon Cancer, read-out: GI50): 1.8 µM
GI50 (Homo sapiens, DU-145, DU-145, Prostate Cancer, read-out: GI50): 12.4 µM
GI50 (Homo sapiens, EKVX, Non-Small Cell Lung Cancer, read-out: GI50): 11.2 µM
GI50 (Homo sapiens, HCC 2998, HCC-2998, Colon Cancer, read-out: GI50): 5.8 µM
GI50 (Homo sapiens, HCT-15, HCT-15, Colon Cancer, read-out: GI50): 4.5 µM
GI50 (Homo sapiens, HCT-116, HCT-116, Colon Cancer, read-out: GI50): 4.9 µM
GI50 (Homo sapiens, HL-60, HL-60(TB), Leukemia, read-out: GI50): 2.9 µM
GI50 (Homo sapiens, HOP-62, HOP-62, Non-Small Cell Lung Cancer, read-out: GI50): 11.4 µM
GI50 (Homo sapiens, HOP-92, HOP-92, Non-Small Cell Lung Cancer, read-out: GI50): 2.7 µM
GI50 (Homo sapiens, HT-29, HT29, Colon Cancer, read-out: GI50): 2.7 µM
GI50 (Homo sapiens, Hs-578T, HS 578T, Breast Cancer, read-out: GI50): 1.4 µM
GI50 (Homo sapiens, IGROV-1, IGROV1, Ovarian Cancer, read-out: GI50): 12.2 µM
GI50 (Homo sapiens, K562, K-562, Leukemia, read-out: GI50): 2.8 µM
GI50 (Homo sapiens, KM12, KM12, Colon Cancer, read-out: GI50): 6.1 µM
GI50 (Homo sapiens, LOX IMVI, Melanoma, read-out: GI50): 6.2 µM
GI50 (Homo sapiens, M14, M14, Melanoma, read-out: GI50): 11 µM
GI50 (Homo sapiens, MCF7, MCF7, Breast Cancer, read-out: GI50): 5.5 µM
GI50 (Homo sapiens, MDA-MB-231, MDA-MB-231/ATCC, Breast Cancer, read-out: GI50): 7.4 µM
GI50 (Homo sapiens, MDA-MB-435, MDA-MB-435, Breast Cancer, read-out: GI50): 7 µM
GI50 (Homo sapiens, MDA-MB-468, MDA-MB-468, Breast Cancer, read-out: GI50): 2.7 µM
GI50 (Homo sapiens, MOLT-4, MOLT-4, Leukemia, read-out: GI50): 4.7 µM
GI50 (Homo sapiens, Malme-3M, Melanoma, read-out: GI50): 10.2 µM
GI50 (Homo sapiens, NCI-H23, NCI-H23, Non-Small Cell Lung Cancer, read-out: GI50): 12.2 µM
GI50 (Homo sapiens, NCI-H226, NCI-H226, Non-Small Cell Lung Cancer, read-out: GI50): 10.7 µM
GI50 (Homo sapiens, NCI-H322M, Non-Small Cell Lung Cancer, read-out: GI50): 14.3 µM
GI50 (Homo sapiens, NCI-H460, NCI-H460, Non-Small Cell Lung Cancer, read-out: GI50): 5.7 µM
GI50 (Homo sapiens, NCI-H522, NCI-H522, Non-Small Cell Lung Cancer, read-out: GI50): 13 µM
GI50 (Homo sapiens, NCI/ADR-RES, Breast Cancer, read-out: GI50): 13.4 µM
GI50 (Homo sapiens, OVCAR-3, OVCAR-3, Ovarian Cancer, read-out: GI50): 11.6 µM
GI50 (Homo sapiens, OVCAR-4, OVCAR-4, Ovarian Cancer, read-out: GI50): 7 µM
GI50 (Homo sapiens, OVCAR-5, OVCAR-5, Ovarian Cancer, read-out: GI50): 10.4 µM
GI50 (Homo sapiens, OVCAR-8, OVCAR-8, Ovarian Cancer, read-out: GI50): 13.6 µM
GI50 (Homo sapiens, PC-3, Prostate Cancer, read-out: GI50): 7.9 µM
GI50 (Homo sapiens, RPMI-8226, RPMI-8226, Leukemia, read-out: GI50): 2.8 µM
GI50 (Homo sapiens, RXF 393, RXF 393, Renal Cancer, read-out: GI50): 3.7 µM
GI50 (Homo sapiens, SF-268, SF-268, CNS Cancer, read-out: GI50): 11.1 µM
GI50 (Homo sapiens, SF-295, SF-295, CNS Cancer, read-out: GI50): 8.3 µM
GI50 (Homo sapiens, SF-539, SF-539, CNS Cancer, read-out: GI50): 8 µM
GI50 (Homo sapiens, SK-MEL-2, SK-MEL-2, Melanoma, read-out: GI50): 14 µM
GI50 (Homo sapiens, SK-MEL-5, SK-MEL-5, Melanoma, read-out: GI50): 2.5 µM
GI50 (Homo sapiens, SK-MEL-28, SK-MEL-28, Melanoma, read-out: GI50): 8.5 µM
